The text below walks through data of US8846698B2, “Pyrrolo[2,3-d]pyrimidine tropomysin-related kinase inhibitors” (Pfizer Limited, priority 2011, dated 2014).

The target in data set [1] is T1, TRKA (Homo sapiens (Human), UniProt P04629). Kind of data set: Isolated TRK enzyme assay (HTRF KinEASE-TK), TRKA. The data set is classed as biochemical. For orientation: Time-resolved FRET reads energy transfer from a long-lived donor to a nearby acceptor.
Target sequence in this assay (P04629 441-796): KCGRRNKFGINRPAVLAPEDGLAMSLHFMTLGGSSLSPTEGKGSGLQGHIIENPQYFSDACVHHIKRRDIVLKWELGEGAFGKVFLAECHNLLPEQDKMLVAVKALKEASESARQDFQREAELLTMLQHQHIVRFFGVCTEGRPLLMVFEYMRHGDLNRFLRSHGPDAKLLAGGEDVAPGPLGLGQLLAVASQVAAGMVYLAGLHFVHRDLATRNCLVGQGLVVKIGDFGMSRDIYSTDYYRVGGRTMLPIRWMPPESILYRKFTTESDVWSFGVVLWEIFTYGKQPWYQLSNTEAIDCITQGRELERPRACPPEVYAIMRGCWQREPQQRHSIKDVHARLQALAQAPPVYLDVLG
The target in data set [2] is T1, TRKA. Kind of data set: Cell based DiscoveRx PathHunter antagonist assay, TRKA cell line. The settings on record: read-out: TrkA cell potency. On the procedure: (§1) After the Detection Reagent addition, plates are covered and incubated at room temperature for 60 minutes. […] Test compound data are expressed as percentage inhibition defined by HPE and ZPE values for each plate. Percentage inhibition in the presence of test compound is plotted against compound concentration on a log scale to determine an IC50 from the resultant sigmoid curve. Cell Based Assays were carried out using Cell lines from DiscoveRx utilising their PathHunter technology and reagents in an antagonist assay:
(§2) The assays are based upon DiscoveRx's proprietary Enzyme Fragment Complementation (EFC) technology. In the case of the TRK cell lines, the enzyme acceptor (EA) protein is fused to a SH2 protein and the TRK receptor of interest has been tagged with a Prolink tag.
(§3) Upon neurotrophin binding, the TRK receptor becomes phosphorylated, and the tagged SH2 protein binds.
(§4) This means that the IC50 is a good measure of affinity and should be unaffected by concentration neurotrophin stimulant.
(§5) Cryopreserved PathHunter cells are used from either in-house produced batches or bulk batches bought directly from DiscoveRx. Cryopreserved cells are resuscitated, spun 1000 rpm for 4 min to remove freezing media, and resuspended in MEM+0.5% horse serum (both Invitrogen) to 5e^5 cells/ml. The cells are then plated using a Multidrop into Greiner white tissue culture treated plates at 20 ul/well and incubated for 24 h at 37° C., 5% CO2, high humidity. On the day of the assay, the cell plates are allowed to cool to room temperature for 30 min prior to the assay.
(§6) Plates containing 1 ul of serially diluted compound, standard and HPE/ZPE are diluted 1/66 in assay buffer (PBS minus Ca^2+, minus Mg^2+ with 0.05% pluronic F127) using a Wellmate. […] The plates are left at room temperature for a further 2 hours before addition of 10 ul of the DiscoveRx PathHunter detection reagent (made up by adding 1 part Galacton Star, 5 parts Emerald II and 19 parts Cell Assay Buffer as per the manufacturer's instructions).
(§7) After reagent addition, plates are covered and incubated at room temperature for 60 minutes. Luminescence signal is read using an Envision. Test compound data are expressed as percentage inhibition defined by HPE and ZPE values for each plate. Percentage inhibition in the presence of test compound is plotted against compound concentration on a log scale to determine an […] from the resultant sigmoid curve.
Target sequence in this assay (P04629 33-796): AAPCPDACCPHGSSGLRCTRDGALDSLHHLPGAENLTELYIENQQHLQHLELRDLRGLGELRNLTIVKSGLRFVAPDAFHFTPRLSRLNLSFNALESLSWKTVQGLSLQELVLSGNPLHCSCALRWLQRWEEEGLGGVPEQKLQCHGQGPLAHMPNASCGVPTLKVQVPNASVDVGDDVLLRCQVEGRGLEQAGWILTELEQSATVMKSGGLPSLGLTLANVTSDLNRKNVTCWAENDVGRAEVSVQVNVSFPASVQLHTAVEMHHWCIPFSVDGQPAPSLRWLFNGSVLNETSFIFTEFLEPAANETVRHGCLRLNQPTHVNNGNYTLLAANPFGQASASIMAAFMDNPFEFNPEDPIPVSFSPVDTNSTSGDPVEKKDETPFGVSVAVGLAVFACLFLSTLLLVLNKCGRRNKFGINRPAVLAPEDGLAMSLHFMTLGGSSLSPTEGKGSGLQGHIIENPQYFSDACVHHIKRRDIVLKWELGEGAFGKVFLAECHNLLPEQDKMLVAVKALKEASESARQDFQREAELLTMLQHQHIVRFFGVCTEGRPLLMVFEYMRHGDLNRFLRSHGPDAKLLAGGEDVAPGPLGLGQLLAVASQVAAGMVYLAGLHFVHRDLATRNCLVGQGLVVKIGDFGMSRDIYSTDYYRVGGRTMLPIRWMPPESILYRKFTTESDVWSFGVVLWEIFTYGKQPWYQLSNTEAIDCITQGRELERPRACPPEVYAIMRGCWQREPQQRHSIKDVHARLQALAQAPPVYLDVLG

The target of data set [3] is TRKB (Homo sapiens (Human), UniProt Q16620). The data set can be described thus: cell-based. The settings on record: TrkB cell potency, TRKB PathHunter cell line. The method, then: as §1, §2, §3, §4, §5, §6, §7
Data set [4] addresses MDR1 (Homo sapiens (Human), UniProt P08183). Kind of data set: MDCK-MDR1 assay (in vitro brain penetration). The settings on record: for Papp B→A / Papp A→B: human; for Papp B→A: MDCK-MDR1, MDCK-MDR1, B to A, read-out: MDCK MDR1 Papp BA; for Papp A→B / MDCK MDR1 Papp AB: MDCK-MDR1, A to B; for Papp A→B: read-out: MDCK MDR1 Papp AB; for MDCK MDR1 Papp BA: MDCK-MDR1, B to A. The format is in vitro ADME. An excerpt: MDCK-MDR1: MDCK-MDR1 data were collected according to the method described in “Are MDCK Cells Transfected with the Human MDR1 Gene a Good Model of the Human Intestinal Mucosa?”
http://www.springerlink.com/content/qfhqlqbr4fnp3 khf/fulltext.pdf

[5] abbreviates: isolated TRKA enzyme, read-out: TrkA enzyme potency.

Chain of TRKB (Q16620 32-822 limits assumed): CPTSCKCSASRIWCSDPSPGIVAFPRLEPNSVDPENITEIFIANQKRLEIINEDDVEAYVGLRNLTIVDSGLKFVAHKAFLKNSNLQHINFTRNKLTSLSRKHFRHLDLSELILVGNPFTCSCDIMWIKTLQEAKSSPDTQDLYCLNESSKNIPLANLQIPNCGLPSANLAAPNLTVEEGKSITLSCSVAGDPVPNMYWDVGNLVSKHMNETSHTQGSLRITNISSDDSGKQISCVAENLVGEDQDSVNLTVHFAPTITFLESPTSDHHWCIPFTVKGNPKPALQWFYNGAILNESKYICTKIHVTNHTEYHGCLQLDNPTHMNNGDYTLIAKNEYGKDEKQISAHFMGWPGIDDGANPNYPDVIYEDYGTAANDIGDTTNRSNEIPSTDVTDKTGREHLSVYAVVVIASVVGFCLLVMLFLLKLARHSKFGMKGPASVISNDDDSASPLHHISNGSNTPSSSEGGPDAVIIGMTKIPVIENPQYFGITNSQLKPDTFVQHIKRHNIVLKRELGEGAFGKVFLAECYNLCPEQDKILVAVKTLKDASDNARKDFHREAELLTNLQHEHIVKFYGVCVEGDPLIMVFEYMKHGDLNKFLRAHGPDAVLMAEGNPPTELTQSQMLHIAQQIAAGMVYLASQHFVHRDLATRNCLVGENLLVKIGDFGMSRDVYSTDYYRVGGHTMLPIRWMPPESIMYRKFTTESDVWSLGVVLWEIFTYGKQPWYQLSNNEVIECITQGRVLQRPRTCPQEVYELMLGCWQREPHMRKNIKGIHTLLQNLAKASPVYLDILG
Chain of MDR1 (P08183 whole entry): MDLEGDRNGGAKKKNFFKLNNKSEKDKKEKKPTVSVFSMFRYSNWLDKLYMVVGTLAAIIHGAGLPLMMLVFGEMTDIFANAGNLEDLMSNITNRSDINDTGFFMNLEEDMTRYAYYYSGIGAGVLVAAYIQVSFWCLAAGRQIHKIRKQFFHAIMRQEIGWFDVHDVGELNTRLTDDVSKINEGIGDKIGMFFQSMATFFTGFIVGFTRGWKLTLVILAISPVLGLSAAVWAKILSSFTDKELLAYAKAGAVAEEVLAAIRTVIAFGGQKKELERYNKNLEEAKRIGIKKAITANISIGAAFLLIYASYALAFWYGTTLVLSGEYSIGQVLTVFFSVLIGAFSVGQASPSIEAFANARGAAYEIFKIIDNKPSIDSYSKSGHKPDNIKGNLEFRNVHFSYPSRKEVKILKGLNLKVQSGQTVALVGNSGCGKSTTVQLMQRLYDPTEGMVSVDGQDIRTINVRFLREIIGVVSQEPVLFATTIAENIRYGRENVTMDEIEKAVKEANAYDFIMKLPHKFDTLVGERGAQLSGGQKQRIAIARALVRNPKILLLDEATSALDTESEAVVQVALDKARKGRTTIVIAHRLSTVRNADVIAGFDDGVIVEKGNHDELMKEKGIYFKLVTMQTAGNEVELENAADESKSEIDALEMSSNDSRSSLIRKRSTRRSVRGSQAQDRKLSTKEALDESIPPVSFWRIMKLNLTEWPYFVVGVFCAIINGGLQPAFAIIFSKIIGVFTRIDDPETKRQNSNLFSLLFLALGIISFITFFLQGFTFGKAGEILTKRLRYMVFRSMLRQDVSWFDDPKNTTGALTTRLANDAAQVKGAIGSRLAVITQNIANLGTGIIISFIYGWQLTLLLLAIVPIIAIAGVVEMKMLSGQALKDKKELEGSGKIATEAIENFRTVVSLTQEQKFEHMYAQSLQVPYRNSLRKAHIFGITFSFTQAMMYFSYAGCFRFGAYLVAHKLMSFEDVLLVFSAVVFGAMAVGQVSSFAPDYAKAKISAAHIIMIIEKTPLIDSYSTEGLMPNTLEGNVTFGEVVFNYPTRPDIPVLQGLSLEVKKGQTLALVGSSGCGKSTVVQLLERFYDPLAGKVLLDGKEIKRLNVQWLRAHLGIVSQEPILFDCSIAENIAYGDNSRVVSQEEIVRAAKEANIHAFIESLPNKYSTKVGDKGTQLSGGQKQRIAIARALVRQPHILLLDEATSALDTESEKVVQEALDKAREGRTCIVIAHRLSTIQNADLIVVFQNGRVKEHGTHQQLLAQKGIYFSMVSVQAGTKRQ

`CC(CO)n1cc(C(=O)c2cncc(NC(=O)Cc3ccc(F)cn3)c2)c2cnc(N)nc21` (single isomer, unassigned) [Example 37, N-(5-{[2-amino-7-(2-hydroxy-1-methylethyl)-7H-pyrrolo[2,3-d]pyrimidin-5-yl]carbonyl}pyridin-3-yl)-2-(5-fluoropyridin-2-yl)acetamide]: the IC50 in data set [1] (setting [5]) amounted to 0.067 µM; in data set [2], 2.25 µM; in data set [3], 0.571 µM.

Take `CC(CO)n1cc(C(=O)c2cncc(NC(=O)Cn3ccc(C(F)(F)F)n3)c2)c2cnc(N)nc21` (single isomer, unassigned) [Example 38, N-(5-{[2-amino-7-(2-hydroxy-1-methylethyl)-7H-pyrrolo[2,3-d]pyrimidin-5-yl]carbonyl}pyridin-3-yl)-2-[3-(trifluoromethyl)-1H-pyrazol-1-yl]acetamide]: the figures for the IC50 in data set [1] (setting [5]), in data set [2] and in data set [3] were 0.0072 µM, 1.06 µM and 0.589 µM, respectively. Moreover, the Papp B→A in data set [4] was determined as 21 nm/s. In addition, in data set [4], the Papp A→B was below 10 nm/s.

Take `CC(CO)n1cc(C(=O)c2cncc(NC(=O)Cn3cc(C(F)(F)F)nn3)c2)c2cnc(N)nc21` (single isomer, unassigned) [Example 39, N-(5-{[2-amino-7-(2-hydroxy-1-methylethyl)-7H-pyrrolo[2,3-d]pyrimidin-5-yl]carbonyl}pyridin-3-yl)-2-[4-(trifluoromethyl)-1H-1,2,3-triazol-1-yl]acetamide]: the IC50 in data set [1] (setting [5]) was 0.024 µM; in data set [2], above 8.66 µM; in data set [3], 4.71 µM. Further, the Papp B→A in data set [4] was below 10 nm/s. In addition, in data set [4], the Papp A→B is below 10 nm/s.

In the case of `CC(CO)n1cc(C(=O)c2cncc(NC(=O)Cc3ccc(F)cn3)c2)c2cnc(N)nc21` (single isomer, unassigned) [Example 40, N-(5-{[2-amino-7-(2-hydroxy-1-methylethyl)-7H-pyrrolo[2,3-d]pyrimidin-5-yl]carbonyl}pyridin-3-yl)-2-(5-fluoropyridin-2-yl)acetamide], the values for the IC50 in data set [1] (setting [5]), in data set [2] and in data set [3] were 0.067 µM, 2.58 µM and 0.506 µM, respectively. In addition, the Papp B→A in data set [4] was 24 nm/s. Further, the Papp A→B in data set [4] is below 10 nm/s.

For the molecule `CC(CO)n1cc(C(=O)c2cncc(NC(=O)Cc3ccc(Cl)cn3)c2)c2cnc(N)nc21` (single isomer, unassigned) [Example 41, N-(5-{[2-amino-7-(2-hydroxy-1-methylethyl)-7H-pyrrolo[2,3-d]pyrimidin-5-yl]carbonyl}pyridin-3-yl)-2-(5-chloropyridin-2-yl)acetamide], the IC50 was found to be 0.0076 µM in data set [1] (setting [5]), 0.203 µM in data set [2] and 0.07 µM in data set [3]. In addition, the “MDCK MDR1 Papp AB” value in data set [4] was below 10 nm/s. Besides, the “MDCK MDR1 Papp BA” value in data set [4] came to 63 nm/s.

For `CC(CO)n1cc(C(=O)c2cncc(NC(=O)Cn3ccc(C(F)(F)F)n3)c2)c2cnc(N)nc21` (single isomer, unassigned) [Example 44, N-(5-{[2-amino-7-(2-hydroxy-1-methylethyl)-7H-pyrrolo[2,3-d]pyrimidin-5-yl]carbonyl}pyridin-3-yl)-2-[3-(trifluoromethyl)-1H-pyrazol-1-yl]acetamide], the IC50 in data set [1] (setting [5]) is 0.012 µM; in data set [2], 0.996 µM; in data set [3], 0.554 µM. Also, the “MDCK MDR1 Papp AB” value in data set [4] was below 10 nm/s. In addition, the “MDCK MDR1 Papp BA” value in data set [4] came to 16 nm/s.

`CC(CO)n1cc(C(=O)c2cncc(NC(=O)Cn3cc(C(F)(F)F)nn3)c2)c2cnc(N)nc21` (single isomer, unassigned) [Example 45, N-(5-{[2-amino-7-(2-hydroxy-1-methylethyl)-7H-pyrrolo[2,3-d]pyrimidin-5-yl]carbonyl}pyridin-3-yl)-2-[4-(trifluoromethyl)-1H-1,2,3-triazol-1-yl]acetamide]: the IC50 is 0.025 µM in data set [1] (setting [5]), above 8.66 µM in data set [2] and 3.79 µM in data set [3]. Further, the “MDCK MDR1 Papp AB” value in data set [4] is below 10 nm/s. The “MDCK MDR1 Papp BA” value in data set [4] was below 10 nm/s.

For the molecule `CC(C)(C)n1cc(C(=O)c2cncc(NC(=O)Cc3ccc(F)cn3)c2)c2cncnc21` [Example 1, N-{5-[(7-tert-Butyl-7H-pyrrolo[2,3-d]pyrimidin-5-yl)carbonyl]pyridin-3-yl}-2-(5-fluoropyridin-2-yl)acetamide], the IC50 in data set [1] (setting [5]) is 0.0037 µM; in data set [2], 0.0095 µM; in data set [3], 0.0015 µM. Besides, the Papp B→A in data set [4] was found to be 140 nm/s. Also, the Papp A→B in data set [4] was 55 nm/s.

With `CC(C)(C)n1cc(C(=O)c2cncc(NC(=O)Cn3ccc(C4CC4)n3)c2)c2cncnc21` [Example 3, N-{5-[(7-tert-butyl-7H-pyrrolo[2,3-d]pyrimidin-5-yl)carbonyl]pyridin-3-yl}-2-(3-cyclopropyl-1H-pyrazol-1-yl)acetamide], the IC50 in data set [1] (setting [5]) was 0.0041 µM; in data set [2], 0.0051 µM; in data set [3], 0.0018 µM. In addition, in data set [4], the Papp B→A came to 200 nm/s. Further, the Papp A→B in data set [4] was 87 nm/s.

As for `CC(C)(C)n1cc(C(=O)c2cncc(NC(=O)Cc3ccc(Cl)cn3)c2)c2cncnc21` [Example 6, N-{5-[(7-tert-butyl-7H-pyrrolo[2,3-d]pyrimidin-5-yl)carbonyl]pyridin-3-yl}-2-(5-chloropyridin-2-yl)acetamide], the values for the IC50 in data set [1] (setting [5]), in data set [2] and in data set [3] were 0.0025 µM, 0.002 µM and 0.0013 µM, respectively. Further, the Papp B→A in data set [4] was 160 nm/s. The Papp A→B in data set [4] turned out to be 69 nm/s.

In the case of `Cc1cc(C(F)(F)F)nn1CC(=O)Nc1cncc(C(=O)c2cn([C@H](C)CO)c3ncncc23)c1` [Example 17, N-[5-({7-[(1R)-2-Hydroxy-1-methylethyl]-7H-pyrrolo[2,3-d]pyrimidin-5-yl}carbonyl)pyridin-3-yl]-2-[5-methyl-3-(trifluoromethyl)-1H-pyrazol-1-yl]acetamide], the IC50 was found to be 0.023 µM in data set [1] (setting [5]), 0.103 µM in data set [2] and 0.045 µM in data set [3]. Further, in data set [4], the Papp B→A was 130 nm/s. In addition, the Papp A→B in data set [4] was below 10 nm/s.

With `C[C@H](CO)n1cc(C(=O)c2cncc(NC(=O)Cn3cc(C4CC4)nn3)c2)c2cncnc21` [Example 18, 2-(4-cyclopropyl-1H-1,2,3-triazol-1-yl)-N-[5-({7-[(1R)-2-hydroxy-1-methylethyl]-7H-pyrrolo[2,3-d]pyrimidin-5-yl}carbonyl)pyridin-3-yl]acetamide], the IC50 in data set [1] (setting [5]) is 0.128 µM; in data set [2] it was above 8.66 µM; in data set [3], 5.3 µM. For the same molecule, the Papp B→A in data set [4] was below 10 nm/s. The Papp A→B in data set [4] was below 10 nm/s.

With `CC(C)n1cc(C(=O)c2c[nH]c(=O)c(NC(=O)Cc3ccc(Cl)cc3)c2)c2cncnc21` [Example 589, 2-(4-chlorophenyl)-N-(2-oxo-5-{[7-(propan-2-yl)-7H-pyrrolo[2,3-d]pyrimidin-5-yl]carbonyl}-1,2-dihydropyridin-3-yl)acetamide], the IC50 in data set [1] (read-out: Trka enzyme (IC50)) came to 0.0313 µM.

Turning to `CC(C)n1cc(C(=O)c2c[nH]c(=O)c(NC(=O)Cc3ccc(Cl)cn3)c2)c2cncnc21` [Example 590, 2-(5-chloropyridin-2-yl)-N-(2-oxo-5-{[7-(propan-2-yl)-7H-pyrrolo[2,3-d]pyrimidin-5-yl]carbonyl}-1,2-dihydropyridin-3-yl)acetamide], the IC50 in data set [1] (read-out: Trka enzyme (IC50)) is 0.0712 µM.

For `CC(C)n1cc(C(=O)c2c[nH]c(=O)c(NC(=O)Cn3cc(C(F)(F)F)nn3)c2)c2cncnc21` [Example 591, N-(2-oxo-5-{[7-(propan-2-yl)-7H-pyrrolo[2,3-d]pyrimidin-5-yl]carbonyl}-1,2-dihydropyridin-3-yl)-2-[4-(trifluoromethyl)-1H-1,2,3-triazol-1-yl]acetamide], the IC50 in data set [1] (read-out: Trka enzyme (IC50)) came out at 0.142 µM.

Take “N-(5-(7-(1,3-dihydroxy-2-methylpropan-2-yl)-7H-pyrrolo[2,3-d]pyrimidine-5-carbonyl)pyridin-3-yl)-2-(3-trifluoromethoxy)phenyl)acetamide [Example 262]”: in data set [1] (read-out: Trka enzyme (IC50)), the IC50 was found to be 0.0323 µM.
